According to patent US20250026789A1, “PEPTIDE HAVING INHIBITORY ACTIVITY AGAINST AMYLOID PRECURSOR PROTEIN AND USE THEREOF” ([…]., priority 2021, published 2025):
“Also recorded” adds a separate entry of the source.

Key:
Assay type in all cases: cell-based, human
[1] = system: amyloid precursor protein (APP); experiment: APP expression by real-time qPCR in SH-SY5Y cells; details: peptide 0.001, 0.01, 0.1, or 1 mM, 24 hours, vs control group without peptide
Procedure: (§1) In the present example, the effect of inhibiting the expression of APP by peptide treatment was confirmed. To this end, the prepared peptides were added at a concentration of 0.001, 0.01, 0.1, or 1 mM to SH-SY5Y, which is a human neural cell line obtained by isolating cells from the bone marrow of a human having neuroblastoma and proliferating them, and then the cells were cultured for 24 hours. Afterward, total RNA was extracted from the culture, cDNA was synthesized, and real-time quantitative polymerase chain reaction (qPCR) was performed using the APP primers shown in Table 2 below to measure the expression level of amyloid precursor protein (APP). Meanwhile, a group to which no peptide was added was used as a control group, and a group to which a random peptide was added (NRP1: AFMVDNEAIYDICR (SEQ ID NO: 9)) was used as a comparative group.
as §1, with “of amyloid precursor protein” for “of APP”, “real-time qPCR” for “real-time quantitative polymerase chain reaction (qPCR)”, “2 above” for “2 below”, “of APP.” for “of amyloid precursor protein (APP).”

[2] = system: Brain Derived Neurotrophic Factor (BDNF); experiment: BDNF expression by real-time qPCR in SH-SY5Y cells; details: peptide 0.001, 0.01, 0.1, or 1 mM, 24 hours, vs control group without peptide
Procedure: In the present example, to confirm the effect of improving or treating a degenerative neurological disease through the regeneration of the nervous system by peptide treatment, the effect of increasing the expression of Brain Derived Neurotrophic Factor (BDNF) was examined. Specifically, the prepared peptides were added to SH-SY5Y, a human neural cell line, at a concentration of 0.001, 0.01, 0.1, or 1 mM, and the cells were cultured at 37° C. and 5% CO2 for 24 hours. Afterward, total RNA was extracted from the culture, cDNA was synthesized, and real-time qPCR was performed using the BDNF primers shown in Table 8 below to measure the expression level of BDNF. Meanwhile, a group to which no peptide was added was used as a control group.

[3] = system: IL-10; experiment: IL-10 expression by real-time qPCR in SH-SY5Y cells; details: peptide 0.001, 0.01, 0.1, or 1 mM, 24 hours, vs control group without peptide
Procedure: In the present example, to confirm the effect inhibiting a neuroinflammatory response by peptide treatment, which is one of the main causes of a neurodegenerative disease, the effect of increasing the expression of IL-10, one of the anti-inflammatory cytokines, was confirmed. Specifically, the prepared peptides were added to SH-SY5Y, a human neural cell line, at a concentration of 0.001, 0.01, 0.1, or 1 mM, and the cells were cultured at 37° C. and 5% CO2 for 24 hours. Afterward, total RNA was extracted from the culture, cDNA was synthesized, and real-time qPCR was performed using the IL-10 primers in Table 6 below to measure the expression level of IL-10. Meanwhile, a group to which no peptide was added was used as a control group.
In the present example to confirm the effect of inhibiting a neuroinflammatory response, which is one of the main causes of a neurodegenerative disease, by peptide treatment, the effect of increasing the expression of IL-10, one of the anti-inflammatory cytokines, was attempted. Specifically, the prepared peptide was added to SH-SY5Y, a human neural cell line, at a concentration of 0.001, 0.01, 0.1, or 1 mM, and the cells were cultured at 37° C. and 5% CO2 for 24 hours. Afterward, total RNA was extracted from the culture, cDNA was synthesized, and real-time qPCR was performed using the IL-10 primers in Table 6 above to measure the expression level of IL-10. Meanwhile, a group to which no peptide was added was used as a control group.

[4] = system: ADAM 17; experiment: ADAM 17 expression by real-time qPCR in SH-SY5Y cells; details: peptide 0.001, 0.01, 0.1, or 1 mM, 24 hours, vs control group without peptide
Procedure: (§2) ADAM 17 is an enzyme that removes APP from the cell membrane surface by cleaving it into a non-toxic fragment, sAPPa. Therefore, the increased expression of ADAM 17 may be used as an indicator of a therapeutic effect on a neurodegenerative disease. Specifically, the prepared peptides were added to SH-SY5Y, a neural cell line, at a concentration of 0.001, 0.01, 0.1, or 1 mM, and cultured at 37° C. and 5% CO2 for 24 hours. Afterward, total RNA was extracted from the culture, cDNA was synthesized, and real-time qPCR was performed using the ADAM 17 primers shown in Table 4 below to measure the expression level of […]. In addition, the prepared peptides were added to SH-SY5Y, a human neural cell line, at a concentration of 0.001, 0.01, 0.1, or 1mM, and cultured at 37° C. and 5% CO2 for 24 hours. Afterward, the expression of ADAM 17 protein from the culture and the expression of sAPPa, which was cleaved from APP by ADAM 17 and ADAM 10 and released, were confirmed through Western blotting using antibodies against each protein. In addition, the distribution of APP on the surface of a nerve cell membrane was analyzed using flow cytometric analysis. Meanwhile, a group to which no peptide was added was used as a control group.
The prepared peptides were added to SH-SY5Y, a neural cell line, at a concentration of 0.001, 0.01, 0.1, or 1 mM, and the cells were cultured at 37° C. and 5% CO2 for 24 hours. Afterward, total RNA was extracted from the culture, cDNA was synthesized, and real-time qPCR was performed using the ADAM 17 primers in Table 4 above to measure the expression level of ADAM 17. Meanwhile, a group to which no peptide was added was used as a control group.

[5] = system: IDE (insulin degrading enzyme); experiment: IDE expression by real-time qPCR in SH-SY5Y cells; details: peptide 0.01, 0.1, or 1 mM, 24 hours, vs control group without peptide
Procedure: IDE is an enzyme that degrades senile plaques produced and aggregated by beta-amyloid (Ab1-42, 1-40). Therefore, the increased expression of IDE may be used as an indicator of a therapeutic effect of a neurodegenerative disease. Specifically, the prepared peptides were added to SH-SY5Y, a human neural cell line, at a concentration of 0.01, 0.1, or 1 mM, and the cells were cultured at 37° C. and 5% CO2 for 24 hours. Afterward, total RNA was extracted from the culture, cDNA was synthesized, and real-time qPCR was performed using the IDE primers in Table 5 below to measure the expression level of IDE. Meanwhile, a group to which no peptide was added was used as a control group.

[6] = system: SH-SY5Y; experiment: Neurite growth in SH-SY5Y cells (microscope, length); details: peptide 0.01, 0.1, or 1 mM, 24 hours
Procedure: In the present example, to confirm the regeneration of neurons by treatment with the peptides, the growth of neurites was confirmed. Specifically, the prepared peptides were added to SH-SY5Y, a human neural cell line, at a concentration of 0.01, 0.1, or 1 mM, and the cells were cultured for 24 hours. Afterward, the grown neurites were confirmed through a microscope, and their length was measured and evaluated.

[7] = system: sAPPa; experiment: sAPPa expression by Western blotting in SH-SY5Y cells; details: peptide 0.001, 0.01, 0.1, or 1 mM, 24 hours, vs control group without peptide
Procedure: as §2

[8] = system: ADAM 17 protein; experiment: ADAM 17 protein expression by Western blotting in SH-SY5Y cells; details: peptide 0.001, 0.01, 0.1, or 1 mM, 24 hours, vs control group without peptide
Procedure: as §2

[9] = system: ADAM 10; experiment: ADAM 10 expression by real-time qPCR in SH-SY5Y cells; details: peptide 0.001, 0.01, 0.1, or 1 mM, 24 hours, vs control group without peptide
Procedure: ADAM 10 is an alpha-secretase that cleaves APP into a non-toxic fragment and inhibits the production of beta-amyloid (β-amyloid, Ab1-42, 1-40). Therefore, the increased expression of ADAM 10 may be used as an indicator of a therapeutic effect on a neurodegenerative disease. Specifically, the prepared peptides were added to SH-SY5Y, a human neural cell line, at a concentration of 0.001, 0.01, 0.1, or 1 mM, and the cells were cultured at 37° C. and 5% CO2 for 24 hours. Afterwards, total RNA was extracted from the culture, cDNA was synthesized, and real-time qPCR was performed using the ADAM 10 primers shown in Table 3 below to measure the expression level of ADAM 10. Meanwhile, a group to which no peptide was added was used as a control group.

Row | Sequence | expression of APP [1] | expression of BDNF [2] | expression of IL-10 [3] | expression of ADAM 17 (gene, qPCR) [4] | expression of IDE [5] | length of the neurites [6] | expression of sAPPa (Western blotting) [7] | expression of ADAM 17 protein (Western blotting) [8] | expression of ADAM 10 [9]
1 | GRILGFSPFR [Peptide-12] | inhibited | increased; also recorded: more significant | increased | increased | – | – | – | – | –
2 | GRPPGFSLAR [Peptide-11] | inhibited | increased; also recorded: more significant | increased | increased | – | – | – | – | –
3 | IKLLSIVAWAKKKI [Peptide-2] | – | – | – | – | increased | increased | – | – | –
4 | INIKVLIAKKIL [Peptide-4] | inhibited | – | increased | increased | increased | – | increased | increased | increased
5 | INLKALAAKIKIL [Peptide-3] | – | – | increased | – | increased | – | – | – | increased
6 | INLLKIAGKIINIL [Peptide-9] | – | increased | increased; also recorded: more significant | increased | – | – | – | – | –
7 | INLLKSEGKIIKSL [Peptide-10] | – | increased | – | increased | – | – | – | – | –
8 | KALAALAKK [Peptide-8] | inhibited | – | – | – | increased | – | – | – | increased
9 | KALAALAKKIL [Peptide-7] | inhibited | – | increased | – | increased | – | increased | increased | increased
10 | LKLKALAALIKKIL [Peptide-1] | inhibited | – | increased | increased | increased | increased | increased | increased | –
11 | LNIRGLGAKKKI [Peptide-5] | inhibited | – | increased | – | increased | – | – | – | increased
12 | LNLRGLAKKKL [Peptide-6] | – | – | – | – | increased | increased | – | – | –
